These results are taken from article PMC8537953 (Viruses, 2021).

For the assay, the system named is SARS-CoV-2. Format: cell-based.

Each structure is given as a SMILES string.

As to `CC(N)C12CC3CC(CC(C3)C1)C2` (stereo not shown) [Rimantadine, rimantadine], the “% of culture cells infected” value is not below 80%.
